We go through 19 compounds from patent US12629371B2, “Compositions and methods for inhibiting kinases” (Inhibikase Therapeutics, Inc., priority 2016, dated 2026).

Molecules are shown by their SMILES. Where only a bound is given, the exact number is not on record here.

Data set [1] is described as follows: Serum protein binding. The following applies: rat. The data set is classed as in vitro ADME.
Data set [2] can be described thus: Pharmacokinetic parameters in Sprague-Dawley rats. Also on record: AUC(0-t): concentration or dose not given beside the values. Particulars: rat, in vivo. On the procedure:
Various pharmacokinetic parameters of the compounds described herein were measured in Sprague-Dawley rats.

Data set [3] can be described thus: Human liver microsome stability. The data set is classed as in vitro ADME. The following applies: human liver microsomes; read-out: Human liver microsome t1/2.
Data set [4] has as its system mice treated with MPTP. The data set can be described thus: Mouse MPTP neurotoxicity model. It counts as in vivo. Particulars: for dopamine levels (protection of dopamine-secreting neurons): HPLC-ECD, FIG. 4; for pole test latency: day 14, FIG. 3, control about 5 seconds, MPTP about 30. On the procedure:
Certain compounds of the present invention were evaluated using the MPTP neurotoxicity model. MPTP causes oxidative stress, which in turn causes c-Abl1 and/or c-Abl2 phosphorylation in the SNpc of mice treated with MPTP. MPTP administration according to this model produces a reliable, irreversible loss of DA neurons 7 days after the last injection, similar to that observed in PD. MPTP causes greater loss of DA neurons in SNpc and degeneration of DA nerve terminals in the caudate putamen. Many of the cell death signaling events observed in PD postmortem tissue are present in the MPTP model including oxidative stress, nitrosative stress, c-Abl activation, Parkin inactivation and PARIS and AIMP2 elevation and PARP activation. […] Because the model is relatively rapid, this model was used to assess dosing for future studies, and as a preliminary measure of efficacy.
The study design is depicted in FIG. 1. […] Wild type mice (n=5 per group) were divided into 4 treatment groups as follows: saline, MPTP, Drug and MPTP+Drug. Saline and MPTP groups were pre-treated with drug vehicle (unbuffered water) (20 animals total). Drug and MPTP+Drug groups received the test compounds for 6 days administered by oral gavage daily. On the seventh day, the saline and Drug groups received four intra-peritoneal (i.p.) injections of saline at 2 h intervals. The MPTP and MPTP+Drug groups received four intraperitoneal (i.p.) injections of MPTP·HCl (20 mg/kg free base) at 2 hr intervals. After the MPTP injection day, mice were treated for an additional 6 days with saline or an ATK inhibitor of the present invention. Mice in the saline and MPTP only groups received saline vehicle while the Drug and MPTP+Drug groups received an additional week of drug treatment. On the 14th day, mice were given a pole test, then sacrificed. Brain samples were processed for analysis of biogenic amine concentrations, including dopamine (DA), by high-performance liquid chromatography with electrochemical detection (HPLC-ECD). Loss of DA and its metabolites in the striatum is a consistently reliable indication of loss of DA neurons in the SNpc.

The target of data set [5] is ARG/Abl2 (Homo sapiens, UniProt P42684). The data set can be described thus: Inhibition profile at 500 nM: ARG/Abl2. The data set is classed as biochemical. The following applies: 500 nM test compound; Table 1. On the procedure:
(§1) Then enzyme substrate is added as 10 μl of 2.5×FAM-labeled peptide+ATP solution to each well of the 384-well assay plate The reaction is allowed to proceed at 28° C. and quenched with the addition of 25 μl of stop buffer. The release of fluorescent FAM is quantitated as Percent inhibition=(max−conversion)/(max−min)*100.sp; “max” stands for DMSO control; “min” stands for low control. Convert conversion values to inhibition values. Percent inhibition=(max−conversion)/(max−min)*100. “max” stands for DMSO control; “min” stands for low control.

Data set [6] addresses ABL (Homo sapiens, UniProt P00519). Put plainly: Inhibition profile at 500 nM: ABL / Abl1. The data set is classed as biochemical. Particulars: 500 nM test compound; Table 1. On the procedure:
as §1

Data set [7] deals with Mice injected with pre-formed alpha-synuclein fibrils. The data set can be described thus: Functional rescue in alpha-synuclein fibril model. It counts as in vivo. An excerpt: Injection of pre-formed alpha-synuclein fibrils is known to induce Parkinson's-like disease in mice. […] This effect is believes to be due to the compound blocking the formation of toxic pre-formed-fibril alpha synuclein by inhibiting c-Abl.

For data set [8], the system named is A53T synuclein mice. The data set can be described thus: Functional rescue in mutated alpha-synuclein model. Particulars: A53T mutant alpha-synuclein mice. The data set is classed as in vivo. An excerpt:
The A53T mutant of alpha-synuclein is a clinically identified mutation that leads to hyper aggregation of alpha-synuclein in mice, and recapitulates the symptoms of Parkinson's disease such as dopaminergic neuron loss.
This effect is believed to be due to the compound blocking formation of the toxic form of A53T-alpha-synuclein by inhibiting c-Abl.

Data set [9] has as its target PDGFRa (Homo sapiens, UniProt P16234). The data set can be described thus: Inhibition profile at 500 nM: PDGFRa. The data set is classed as biochemical. Particulars: 500 nM test compound; Table 2; read-out: Percent inhibition PDGFRa. On the procedure:
as §1

In data set [10] the target is c-Abl1 (Homo sapiens, UniProt P00519). The data set can be described thus: Inhibition of Abelson protein kinase c-Abl1 (FAM-labeled peptide assay, IC50). It counts as biochemical. How it is done: (§2) Mix the compounds in intermediate plate for 10 min on shaker. For the assay of enzyme inhibitions, 5 μl of each well from the intermediate plate is transferred to a 384-well plate in duplicates, 10. […] Then enzyme substrate is added as 10 μl of 2.5×FAM-labeled peptide+ATP solution to each well of the 384-well assay plate The reaction is allowed to proceed at 28° C. and quenched with the addition of 25 μl of stop buffer. The release of fluorescent FAM is quantitated as Percent inhibition=(max−conversion)/(max−min)*100. “max” stands for DMSO control; “min” stands for low control. Data are fit in XLFit excel add-in version 4.3.1 to obtain IC50 values. Equation used is: Y=Bottom+(Top−Bottom)/(1+(IC50/X)^HillSlope).
Chain of c-Abl1 (P00519 whole entry): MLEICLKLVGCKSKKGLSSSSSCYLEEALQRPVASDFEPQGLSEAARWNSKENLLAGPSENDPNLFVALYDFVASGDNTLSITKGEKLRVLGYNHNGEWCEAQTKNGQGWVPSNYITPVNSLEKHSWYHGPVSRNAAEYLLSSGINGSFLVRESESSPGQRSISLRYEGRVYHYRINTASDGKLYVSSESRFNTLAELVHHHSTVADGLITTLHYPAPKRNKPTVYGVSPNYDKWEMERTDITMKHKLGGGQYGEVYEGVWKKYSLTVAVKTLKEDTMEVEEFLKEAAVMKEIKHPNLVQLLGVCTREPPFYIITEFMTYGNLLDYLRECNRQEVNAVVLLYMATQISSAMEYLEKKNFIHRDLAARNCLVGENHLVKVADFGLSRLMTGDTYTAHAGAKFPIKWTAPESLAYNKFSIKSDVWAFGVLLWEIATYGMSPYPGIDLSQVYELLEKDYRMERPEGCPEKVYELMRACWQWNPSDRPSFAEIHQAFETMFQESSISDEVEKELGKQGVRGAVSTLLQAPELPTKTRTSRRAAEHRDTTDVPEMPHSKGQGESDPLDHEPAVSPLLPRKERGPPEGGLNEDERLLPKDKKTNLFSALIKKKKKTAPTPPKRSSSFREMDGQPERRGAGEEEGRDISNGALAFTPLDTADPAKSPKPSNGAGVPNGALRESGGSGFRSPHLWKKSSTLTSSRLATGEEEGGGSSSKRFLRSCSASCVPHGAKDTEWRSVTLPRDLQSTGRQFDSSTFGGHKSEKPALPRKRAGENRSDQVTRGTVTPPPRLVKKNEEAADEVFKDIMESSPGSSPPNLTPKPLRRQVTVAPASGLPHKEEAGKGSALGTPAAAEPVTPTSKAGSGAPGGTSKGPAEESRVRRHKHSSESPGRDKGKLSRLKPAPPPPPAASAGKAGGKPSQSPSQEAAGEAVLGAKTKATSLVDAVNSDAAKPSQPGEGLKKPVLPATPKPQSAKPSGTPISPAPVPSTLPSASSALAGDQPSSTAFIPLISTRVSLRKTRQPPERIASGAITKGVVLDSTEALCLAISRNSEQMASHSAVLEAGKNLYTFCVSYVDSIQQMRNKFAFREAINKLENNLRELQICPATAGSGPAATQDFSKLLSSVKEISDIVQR

Data set [11] concerns the target c-Abl2 (Homo sapiens, UniProt P42684). Put plainly: Inhibition of Abelson protein kinase c-Abl2 (FAM-labeled peptide assay, IC50). It counts as biochemical. How it is done:
as §2

Data set [12] deals with animal models of Parkinson's Disease. Particulars: literature (J. Neurosci. 31(1); Scientific Reports 4:4874); cited from earlier work.
Data set [13] has as its system mice treated with MPTP. Particulars: known ATK inhibitors, background statement; cited from earlier work.

Chain of PDGFRa (P16234 24-1089): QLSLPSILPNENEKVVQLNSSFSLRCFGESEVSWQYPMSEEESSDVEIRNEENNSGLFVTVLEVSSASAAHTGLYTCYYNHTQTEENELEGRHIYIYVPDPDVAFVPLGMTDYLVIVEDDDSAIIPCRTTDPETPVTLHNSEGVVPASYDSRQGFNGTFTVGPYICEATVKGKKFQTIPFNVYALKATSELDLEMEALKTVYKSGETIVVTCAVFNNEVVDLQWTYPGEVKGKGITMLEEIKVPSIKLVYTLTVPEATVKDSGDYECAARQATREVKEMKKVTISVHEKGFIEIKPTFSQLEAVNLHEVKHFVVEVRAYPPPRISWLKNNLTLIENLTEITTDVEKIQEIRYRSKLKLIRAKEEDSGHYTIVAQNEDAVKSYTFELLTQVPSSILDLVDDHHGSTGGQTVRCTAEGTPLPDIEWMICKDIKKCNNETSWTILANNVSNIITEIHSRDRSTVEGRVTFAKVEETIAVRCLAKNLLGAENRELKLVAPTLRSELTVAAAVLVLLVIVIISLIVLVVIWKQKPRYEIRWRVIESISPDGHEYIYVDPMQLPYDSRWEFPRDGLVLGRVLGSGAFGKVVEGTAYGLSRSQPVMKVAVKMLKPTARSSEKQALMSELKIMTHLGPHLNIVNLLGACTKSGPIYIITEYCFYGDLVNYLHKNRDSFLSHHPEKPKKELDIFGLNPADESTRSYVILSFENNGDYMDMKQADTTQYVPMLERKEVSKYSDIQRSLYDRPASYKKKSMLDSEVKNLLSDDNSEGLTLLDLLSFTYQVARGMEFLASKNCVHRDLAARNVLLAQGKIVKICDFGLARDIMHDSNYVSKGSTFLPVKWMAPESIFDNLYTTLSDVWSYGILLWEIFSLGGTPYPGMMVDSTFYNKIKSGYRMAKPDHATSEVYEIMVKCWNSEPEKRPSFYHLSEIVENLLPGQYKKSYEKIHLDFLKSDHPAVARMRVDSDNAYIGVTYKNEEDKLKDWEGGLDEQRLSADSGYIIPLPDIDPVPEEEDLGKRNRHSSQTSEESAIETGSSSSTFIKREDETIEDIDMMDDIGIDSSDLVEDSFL
Chain of c-Abl2 (P42684 whole entry): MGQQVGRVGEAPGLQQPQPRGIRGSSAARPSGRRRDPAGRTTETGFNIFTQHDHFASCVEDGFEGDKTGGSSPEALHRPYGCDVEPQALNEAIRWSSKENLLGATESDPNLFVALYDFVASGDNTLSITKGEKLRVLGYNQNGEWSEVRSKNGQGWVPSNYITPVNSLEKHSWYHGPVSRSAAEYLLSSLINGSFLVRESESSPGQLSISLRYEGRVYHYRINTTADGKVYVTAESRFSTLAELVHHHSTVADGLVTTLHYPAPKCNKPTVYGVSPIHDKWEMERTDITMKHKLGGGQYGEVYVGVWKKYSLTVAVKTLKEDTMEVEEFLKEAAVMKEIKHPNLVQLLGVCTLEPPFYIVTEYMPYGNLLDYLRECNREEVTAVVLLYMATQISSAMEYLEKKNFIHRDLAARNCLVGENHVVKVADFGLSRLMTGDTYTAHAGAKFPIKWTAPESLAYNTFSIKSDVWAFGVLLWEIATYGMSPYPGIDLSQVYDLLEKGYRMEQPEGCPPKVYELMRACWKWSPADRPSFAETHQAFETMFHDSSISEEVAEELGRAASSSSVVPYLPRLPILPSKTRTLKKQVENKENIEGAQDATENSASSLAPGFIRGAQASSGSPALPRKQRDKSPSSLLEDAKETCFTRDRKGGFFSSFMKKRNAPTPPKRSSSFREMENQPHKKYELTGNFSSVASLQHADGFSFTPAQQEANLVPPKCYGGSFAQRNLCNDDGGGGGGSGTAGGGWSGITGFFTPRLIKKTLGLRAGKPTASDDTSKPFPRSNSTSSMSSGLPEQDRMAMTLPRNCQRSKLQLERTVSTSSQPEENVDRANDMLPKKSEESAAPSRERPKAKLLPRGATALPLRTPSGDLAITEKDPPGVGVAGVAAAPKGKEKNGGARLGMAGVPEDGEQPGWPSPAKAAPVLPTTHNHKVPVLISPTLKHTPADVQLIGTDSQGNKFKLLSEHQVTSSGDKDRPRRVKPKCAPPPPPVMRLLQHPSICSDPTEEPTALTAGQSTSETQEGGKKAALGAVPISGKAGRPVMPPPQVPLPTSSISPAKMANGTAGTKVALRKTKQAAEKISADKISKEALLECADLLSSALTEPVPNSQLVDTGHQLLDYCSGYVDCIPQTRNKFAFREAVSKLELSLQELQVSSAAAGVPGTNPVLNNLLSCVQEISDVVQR
Chain of ABL (P00519 whole entry): as the sequence (P00519 whole entry) above
Chain of ARG/Abl2 (P42684 whole entry): as the sequence (P42684 whole entry) above

As a reminder, the fraction unbound is the share of the substance not bound to proteins or other matrix. By AUC(0-t) is commonly meant the area under the concentration-time curve up to a stated or last time point. What is called Cmax is the maximum level reached in the sampled fluid or tissue. What is called Tmax is the time at which the peak concentration occurs. Usually Vd stands for the apparent volume that relates the amount in the body to the concentration in plasma or blood. As usually defined, the bioavailability is dose-corrected exposure relative to a reference, in per cent. One may read the clearance as the rate of elimination divided by the concentration. In data set [1], `Cc1cc(-c2cncc(-c3ccnc(Nc4cc(NC(=O)c5ccc(CN6CCN(C)CC6)cc5)ccc4C)n3)c2)on1` [Compound 207] had a fraction unbound of 0.141. In addition, in data set [2], the area under the curve AUC(0-t) came out at 1650 ± 1080 ng·h/mL, the highest level (Cmax) was 225 ± 83.8 ng/mL, the Tmax turned out to be 5.3 ± 1.2 h and the distribution volume (Vd) turned out to be 6.5 ± 0.96 L/kg. In data set [2], the bioavailability was 32%, the clearance is 33.3 mL/min/kg and the half-life is 3.1 h. Also, the half-life in [3] amounted to 0.292 h. In data set [4], the “dopamine levels (protection of dopamine-secreting neurons)” value (“dopamine levels” below) was “protected dopamine-secreting neurons from degeneration” and the pole test latency result is on record as “recovered to a near-normal latency time”.
Regarding `Cc1ccc(NC(=O)c2ccc(CN3CCN(C)CC3)cc2)cc1Nc1nccc(-c2cncc(-n3cccn3)c2)n1` [Compound 303], in [5], the “Percent inhibition ARG/Abl2” value is given as 62%. Further, the “Percent inhibition ABL” value in data set [6] is on record as 79%.
On to `Cc1ccc(NC(=O)c2ccc(CN3CCN(C)CC3)cc2)cc1Nc1nccc(-c2cncc(-c3oncc3C)c2)n1` [Compound 809], for which the fraction unbound in data set [1] is 0.143. Also, in data set [2], the AUC(0-t) came to 1060 ng·h/mL, the peak level (Cmax) was 170 ng/mL, the time of peak concentration (Tmax) is 4 h and the volume of distribution (Vd) came out at 7.2 L/kg. Moreover, in data set [2], the bioavailability was 24%, the clearance was 45 mL/min/kg and the half-life is 2.2 h. Also, the “Parkinson's-like disease after pre-formed alpha-synuclein fibrils” value in data set [7] is “fail to exhibit Parkinson's like disease”. Besides, the half-life in data set [3] was found to be 0.364 h. In data set [4], the “dopamine levels” value is reported as “protected dopamine-secreting neurons from degeneration” and the pole test latency result is “recovered to a near-normal latency time”. Moreover, the “dopaminergic neuron loss in A53T synuclein mice” value in data set [8] is listed as “fail to display the characteristics of dopaminergic neuron loss”.
Broadly, the inhibition is the percentage by which the read-out fell short of the control. Regarding `Cc1ccnc(-c2cncc(-c3ccnc(Nc4cc(NC(=O)c5ccc(CN6CCN(C)CC6)cc5)ccc4C)n3)c2)c1` [Compound 830], in data set [2], the area under the curve AUC(0-t) came to 3720 ± 1090 ng·h/mL, the peak level (Cmax) was 465 ± 115 ng/mL, the time of peak concentration (Tmax) came to 4 h and the volume of distribution (Vd) came out at 6.3 ± 1.1 L/kg. In [2], this compound had a bioavailability of 47%, a clearance of 21.7 mL/min/kg and a half-life of 3.6 h. For the same compound, in [3], the half-life was 0.326 h. For the same compound, the inhibition at 0.5 µM in data set [9] turned out to be 100%.
For the compound `Cc1ccc(NC(=O)c2ccc(CN3CCN(C)CC3)cc2)cc1Nc1nccc(-c2cncc(-c3ccnn3C)c2)n1` [Compound 831], the inhibition at 0.5 µM in [9] is 100%.
Take `Cc1ccc(NC(=O)c2ccc(CN3CCN(C)CC3)cc2)cc1Nc1nccc(-c2cncc(-c3ccn(C)n3)c2)n1` [Compound 832]: in [2], the AUC(0-t) is 3180 ± 930 ng·h/mL, the Cmax amounted to 416 ± 84.5 ng/mL, the Tmax is 4 h and the Vd came out at 3.6 ± 1.8 L/kg. In data set [2], this compound gave a bioavailability of 33%, a clearance of 21.7 mL/min/kg and a half-life of 2.6 h. For the same compound, the half-life in [3] was determined as 0.408 h. For the same compound, in data set [4], the “dopamine levels” value is “protected dopamine-secreting neurons from degeneration” and the pole test latency entry is given as “recovered to a near-normal latency time”. Further, in [9], the inhibition at 0.5 µM turned out to be 100%.
For the compound `Cc1ccc(NC(=O)c2ccc(CN3CCNCC3)cc2)cc1Nc1nccc(-c2cncc(-c3ccncc3)c2)n1` [Compound 870], in data set [9], the inhibition at 0.5 µM turned out to be 100%.
Consider `Cc1ccc(NC(=O)c2ccc(CN3CCNCC3)cc2)cc1Nc1nccc(-c2cncc(-c3ccccn3)c2)n1` [Compound 880], for which the inhibition at 0.5 µM in data set [9] is 100%.
Same read-out and setting: the result for `Cc1ccc(NC(=O)c2ccc(CN3CCN(C)CC3)cc2)cc1Nc1nccc(-c2cncc(-c3ccns3)c2)n1` [Compound 8170] reads 100%.
Regarding `Cc1cc(-c2cncc(-c3ccnc(Nc4cc(NC(=O)c5ccc(CN6CCN(C)CC6)cc5)ccc4C)n3)c2)sn1` [Compound 8190], the inhibition at 0.5 µM in data set [9] amounted to 100%.
The term IC50 denotes the concentration at which inhibition is half-maximal. With `Cc1ccc(NC(=O)c2ccc(CN3CCN(C)CC3)cc2)cc1Nc1nccc(-c2cncc(-c3cnns3)c2)n1` [Compound 8230], the IC50 in data set [10] and in data set [11] was > 1000 nM throughout.
In the case of `Cc1ccc(NC(=O)c2ccc(CN3CCN(C)CC3)cc2)cc1Nc1nccc(-c2cncc(-c3snnc3C)c2)n1` [Compound 8240], the IC50 in data set [10] and in data set [11] was > 1000 nM throughout.
Turning to `Cc1ccc(NC(=O)c2ccc(CN3CCN(C)CC3)cc2)cc1Nc1nccc(-c2cncc(-c3nncs3)c2)n1` [Compound 8250], the inhibition at 0.5 µM in [9] turned out to be 100%.
Consider `Cc1nnc(-c2cncc(-c3ccnc(Nc4cc(NC(=O)c5ccc(CN6CCN(C)CC6)cc5)ccc4C)n3)c2)s1` [Compound 8260], for which, in data set [9], the inhibition at 0.5 µM came out at 100%.
For the compound `Cc1ccc(NC(=O)c2ccc(CN3CCN(C)CC3)cc2)cc1Nc1nccc(-c2cncc(-c3nccs3)c2)n1` [Compound 8270], in [2], the area under the curve AUC(0-t) was found to be 1760 ± 268 ng·h/mL, the peak concentration (Cmax) was 210 ± 31 ng/mL, the Tmax was found to be 5.3 h and the Vd was 7.8 ± 0.7 L/kg. For the same compound, in data set [2], the bioavailability is 46%, the clearance is 43.3 mL/min/kg and the half-life was 3.3 h. Besides, the half-life in [3] was 0.348 h. For the same compound, in [4], the “dopamine levels” value is “protected dopamine-secreting neurons from degeneration” and the pole test latency result was “not statistically significant”.
Take `Cc1cnc(-c2cncc(-c3ccnc(Nc4cc(NC(=O)c5ccc(CN6CCN(C)CC6)cc5)ccc4C)n3)c2)s1` [Compound 8280]: the inhibition at 0.5 µM in data set [9] was determined as 100%.
The same measure, in the same setting: the result for `Cc1csc(-c2cncc(-c3ccnc(Nc4cc(NC(=O)c5ccc(CN6CCN(C)CC6)cc5)ccc4C)n3)c2)n1` [Compound 8290] reads 100%.
As to `Cc1ccc(NC(=O)c2ccc(CN3CCN(C)CC3)cc2)cc1Nc1nccc(-c2cccnc2)n1` [imatinib, reference compound], the “effectiveness in animal models of Parkinson's Disease” value in data set [12] is listed as “appear effective”. In data set [2], the AUC(0-t) came to 2730 ng·h/mL, the Cmax was determined as 241 ng/mL, the Tmax came out at 4 h and the bioavailability was ~53%.
For the compound `Cc1cn(-c2cc(NC(=O)c3ccc(C)c(Nc4nccc(-c5cccnc5)n4)c3)cc(C(F)(F)F)c2)cn1` [nilotinib], the “effectiveness in animal models of Parkinson's Disease” value in [12] is “appear effective”. The “neuroprotection in the acute MPTP-induced model of PD” value in data set [13] is “provide neuroprotection”.
